In patent US5036071A, “Derivatives of purine” (Medivir AB, priority 1984, dated 1991):

Legend:
HSV-2 strain 91075 = assay: Treatment of a systemic HSV-2 infection in mice (mortality); assay type: in vivo; details: oral; for Mortality (%) day 6 / Mortality (%) day 9 / Mortality (%) day 12 / Mortality (%) day 15: twice daily for ten days; for Mortality (%) day 6: day 6 post infection; for Mortality (%) day 9: day 9 post infection; for Mortality (%) day 12: day 12 post infection; for Mortality (%) day 15: day 15 post infection
Method: In the following the compound (R)-(+)-9-(3,4-dihydroxybutyl)guanine is denoted VIS 743, the compound (R)-2-amino-9-(3,4-dihydroxybutyl)purine is denoted VSA 305 and Herpes simplex type 2 virus is denoted HSV-2. Mice infected systemically with HSV-2 strain 91075 (10^4 pfu infected i.p.) were treated orally with VIS 743 or VSA 305 twice daily for ten days. Treatment started 1 hour post infection. Mortality was determined on several days post infection.

[1] = Plasma concentration of VIS 743 in mice after giving VIS 743 or VSA 305 orally; assay type: in vivo; details: 15 mg/kg p.o.
Method: Mice were given VIS 743 or VSA 305 p.o. Each compound was given in a dosage of 15 mg/kg. The plasma concentrations of VIS 743 were determined by analysis on HPLC, 30, 60, 90 and 120 min after dosage. Each concentration was determined as an average of results from two mice.

biological transformation to VIS 743 [1] | Compound | Mortality (%) day 6 (HSV-2 strain 91075; 15 mg/kg) [%] | Mortality (%) day 9 (HSV-2 strain 91075; 15 mg/kg) [%] | Mortality (%) day 12 (HSV-2 strain 91075; 15 mg/kg) [%] | Mortality (%) day 15 (HSV-2 strain 91075; 15 mg/kg) [%] | Mortality (%) day 6 (HSV-2 strain 91075; 30 mg/kg) [%] | Mortality (%) day 9 (HSV-2 strain 91075; 30 mg/kg) [%] | Mortality (%) day 12 (HSV-2 strain 91075; 30 mg/kg) [%] | Mortality (%) day 15 (HSV-2 strain 91075; 30 mg/kg) [%] | effect of a low dose (15 mg/kg) compared with a high dose of VIS 743 (30 mg/kg) (HSV-2 strain 91075; VSA 305 15 mg/kg vs VIS 743 30 mg/kg)
– | Nc1nc2c(ncn2CC[C@@H](O)CO)c(=O)[nH]1 [VIS 743, (R)-(+)-9-(3,4-dihydroxybutyl)guanine] | 40 | 80 | 100 | 100 | 0 | 28 | 45 | 53 | –
biologically transformed to VIS 743 | Nc1ncc2ncn(CC[C@@H](O)CO)c2n1 [VSA 305, (R)-2-amino-9-(3,4-dihydroxybutyl)purine] | 0 | 45 | 50 | 53 | – | – | – | – | comparable
